From patent US9777017B2, “Tricyclic fused thiophene derivatives as JAK inhibitors” (Incyte Corporation, priority 2012, dated 2017)

Columns and labels:
Assay type in all cases: biochemical
human JAK2 = human JAK2 (Homo sapiens (Human), UniProt O60674); experiment: In vitro JAK kinase assay (HTRF, phosphorylation of a biotinylated peptide), JAK2; design: key to JAK2 IC50 (nM): +indicates an IC50 of ≦100 nM; ++indicates an IC50 of ≦1000 nM; +++indicates an IC50 of ≦2000 nM; ++++indicates an IC50 of >2000 nM; +++++indicates that the IC50 was greater than the highest concentration tested; details: 1 mM ATP
Method in brief: (§1)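 Baculovirus-expressed catalytic domains (JAK1 a.a. 837-1142, JAK2 a.a. 828-1132) phosphorylate 500 nM biotinylated peptide at 1 mM ATP, Tris pH 7.8, 1 h at room temperature. EDTA stop and HTRF detection with Eu-Py20/SA-APC; IC50 values derived.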

human JAK1 [1] = experiment: In vitro JAK kinase assay (HTRF, phosphorylation of a biotinylated peptide), JAK1; details: ratio of IC50s, 1 mM ATP
Method in brief: as §1

human JAK1 [2] = molecular target: human JAK1 (Homo sapiens, UniProt P23458); experiment: as above; details: 1 mM ATP
Method in brief: as §1

Sequence of human JAK2 (O60674 828-1132): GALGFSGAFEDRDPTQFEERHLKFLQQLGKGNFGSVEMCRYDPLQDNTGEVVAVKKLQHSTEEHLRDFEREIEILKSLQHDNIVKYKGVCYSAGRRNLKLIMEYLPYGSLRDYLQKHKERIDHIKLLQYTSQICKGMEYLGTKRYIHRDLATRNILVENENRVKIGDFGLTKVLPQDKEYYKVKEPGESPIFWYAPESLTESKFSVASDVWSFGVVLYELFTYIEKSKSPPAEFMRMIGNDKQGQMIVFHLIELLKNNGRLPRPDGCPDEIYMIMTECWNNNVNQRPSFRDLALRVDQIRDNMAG

IC50 (human JAK2)	JAK2/JAK1 (human JAK1 [1])	IC50 (human JAK1 [2])	JAK2 IC50 (nM) (human JAK2)	Compound
≤ 2 µM	>10	≤ 0.1 µM	–	C[C@@H](O)c1nc2cnc3ccsc3c2n1[C@H]1CC[C@H](CNS(C)(=O)=O)OC1 [Example 75, N-[((2R,5S)-5-{2-[(1R)-1-Hydroxyethyl]-1H-imidazo[4,5-d]thieno[3,2-b]pyridin-1-yl}tetrahydro-2H-pyran-2-yl)methyl]methanesulfonamide]
≤ 1 µM	>10	≤ 0.1 µM	–	CC(C)c1nc2cnc3ccsc3c2n1[C@H]1CC[C@H](CC#N)CC1 [Example 27, [trans-4-(2-Isopropyl-1H-imidazo[4,5-d]thieno[3,2-b]pyridin-1-yl)cyclohexyl]acetonitrile]
≤ 1 µM	>10	≤ 0.1 µM	–	CC(C)c1nc2cnc3ccsc3c2n1[C@H]1CC[C@H](CC#N)OC1 [Example 42, [(2R,5S)-5-(2-Isopropyl-1H-imidazo[4,5-d]thieno[3,2-b]pyridin-1-yl)tetrahydro-2H-pyran-2-yl]acetonitrile]
≤ 1 µM	>10	≤ 0.1 µM	–	COC(=O)NC[C@H]1CC[C@H](n2c(CC#N)nc3cnc4ccsc4c32)CC1 [Example 86, Methyl ({trans-4-[2-(cyanomethyl)-1H-imidazo[4,5-d]thieno[3,2-b]pyridin-1-yl]cyclohexyl}methyl)carbamate]
–	>3	≤ 1 µM	+++++	C[C@@H](O)c1nc2cnc3ccsc3c2n1[C@H]1CCCOC1 [Example 1, (1R)-1-{1-[(3S)-Tetrahydro-2H-pyran-3-yl]-1H-imidazo[4,5-d]thieno[3,2-b]pyridin-2-yl}ethanol]
–	>10	≤ 1 µM	+++++	C[C@@H](O)c1nc2cnc3ccsc3c2n1[C@H]1CCCN(CCC#N)C1 [Example 56, 3-((3S)-3-{2-[(1R)-1-Hydroxyethyl]-1H-imidazo[4,5-d]thieno[3,2-b]pyridin-1-yl}piperidin-1-yl)propanenitrile]
≤ 1 µM	>10	≤ 0.1 µM	–	CCCOC(=O)NC[C@H]1CC[C@H](n2c([C@@H](C)O)nc3cnc4ccsc4c32)CC1 [Example 83, Propyl [(trans-4-{2-[(1R)-1-hydroxyethyl]-1H-imidazo[4,5-d]thieno[3,2-b]pyridin-1-yl}cyclohexyl)methyl]carbamate]
–	>10	≤ 0.1 µM	+++++	C[C@@H](O)c1nc2cnc3ccsc3c2n1[C@H]1CCN(CCCC(F)(F)F)C1 [Example 64, (1R)-1-{1-[(3S)-1-(4,4,4-Trifluorobutyl)pyrrolidin-3-yl]-1H-imidazo[4,5-d]thieno[3,2-b]pyridin-2-yl}ethanol]
> 2 µM	>10	≤ 0.1 µM	–	C[C@@H](O)c1nc2cnc3ccsc3c2n1C1CCCC(CCC#N)C1 (stereo partly drawn) [Example 32, 3-(3-{2-[(1R)-1-Hydroxyethyl]-1H-imidazo[4,5-d]thieno[3,2-b]pyridin-1-yl}cyclohexyl)propanenitrile]
–	>9	≤ 2 µM	+++++	C[C@@H](O)c1nc2cnc3ccsc3c2n1C1CCN(CC(F)(F)F)CC1 [Example 15, (1R)-1-{1-[1-(2,2,2-Trifluoroethyl)piperidin-4-yl]-1H-imidazo[4,5-d]thieno[3,2-b]pyridin-2-yl}ethanol]
≤ 1 µM	>10	≤ 0.1 µM	–	CCOC(=O)NC[C@H]1CC[C@H](n2c(CC#N)nc3cnc4ccsc4c32)CC1 [Example 87, Ethyl ({trans-4-[2-(cyanomethyl)-1H-imidazo[4,5-d]thieno[3,2-b]pyridin-1-yl]cyclohexyl}methyl)carbamate]
≤ 1 µM	>10	≤ 0.1 µM	–	C[C@@H](O)c1cc2cnc3ccsc3c2n1[C@H]1CC[C@H](CC#N)CC1 [Example 23, (trans-4-{7-[(1R)-1-Hydroxyethyl]-8H-pyrrolo[2,3-d]thieno[3,2-b]pyridin-8-yl}cyclohexyl)acetonitrile]
–	>10	≤ 0.1 µM	+++++	C[C@@H](O)c1nc2cnc3ccsc3c2n1[C@H]1CC[C@H](CO)CC1 [Example 11, (1R)-1-{1-[trans-4-(Hydroxymethyl)cyclohexyl]-1H-imidazo[4,5-d]thieno[3,2-b]pyridin-2-yl}ethanol]
–	>5	≤ 1 µM	+++++	CNS(=O)(=O)C[C@H]1CC[C@H](n2c([C@@H](C)O)nc3cnc4ccsc4c32)CC1 [Example 14, 1-(trans-4-{2-[(1R)-1-hydroxyethyl]-1H-imidazo[4,5-d]thieno[3,2-b]pyridin-1-yl}cyclohexyl)-N-methylmethanesulfonamide]
–	>10	≤ 1 µM	+++++	C[C@@H](O)c1nc2cnc3ccsc3c2n1[C@H]1CCN(CCCCC#N)C1 [Example 66, 5-((3S)-3-{2-[(1R)-1-Hydroxyethyl]-1H-imidazo[4,5-d]thieno[3,2-b]pyridin-1-yl}pyrrolidin-1-yl)pentanenitrile]
–	>10	≤ 1 µM	+++++	C[C@@H](O)c1nc2cnc3ccsc3c2n1[C@H]1CCCN(C(=O)CCCC#N)C1 [Example 59, 5-((3S)-3-{2-[(1R)-1-Hydroxyethyl]-1H-imidazo[4,5-d]thieno[3,2-b]pyridin-1-yl}piperidin-1-yl)-5-oxopentanenitrile]
≤ 1 µM	>10	≤ 0.1 µM	–	CC(C)OC(=O)NC[C@H]1CC[C@H](n2c([C@@H](C)O)nc3cnc4ccsc4c32)CC1 [Example 84, Isopropyl [(trans-4-{2-[(1R)-1-hydroxyethyl]-1H-imidazo[4,5-d]thieno[3,2-b]pyridin-1-yl}cyclohexyl)methyl]carbamate]
≤ 0.1 µM	>7	≤ 0.1 µM	–	Cc1nc2cnc3ccsc3c2n1[C@H]1CC[C@H](CC#N)CC1 [Example 48, [trans-4-(2-Methyl-1H-imidazo[4,5-d]thieno[3,2-b]pyridin-1-yl)cyclohexyl]acetonitrile]
≤ 1 µM	>10	≤ 0.1 µM	–	C[C@@H](O)c1nc2cnc3ccsc3c2n1[C@H]1CC[C@H](CC#N)CC1.Cl [Example 10, (trans-4-{2-[(1R)-1-Hydroxyethyl]-1H-imidazo[4,5-d]thieno[3,2-b]pyridin-1-yl}cyclohexyl)acetonitrile HCl salt]
≤ 1 µM	>10	≤ 0.1 µM	–	CCOC(=O)NC[C@H]1CC[C@H](n2c([C@@H](C)O)nc3cnc4ccsc4c32)CC1 [Example 82, Ethyl [(trans-4-{2-[(1R)-1-hydroxyethyl]-1H-imidazo[4,5-d]thieno[3,2-b]pyridin-1-yl}cyclohexyl)methyl]carbamate]
≤ 1 µM	>10	≤ 0.1 µM	–	N#CC[C@H]1CC[C@H](n2c(C3CC3)nc3cnc4ccsc4c32)CO1 [Example 43, [(2R,5S)-5-(2-Cyclopropyl-1H-imidazo[4,5-d]thieno[3,2-b]pyridin-1-yl)tetrahydro-2H-pyran-2-yl]acetonitrile]
> 2 µM	>10	≤ 0.1 µM	–	C[C@@H](O)c1nc2cnc3ccsc3c2n1[C@H]1CC[C@H](CNC(=O)N(C)C)CC1 [Example 81, N′-[(trans-4-{2-[(1R)-1-Hydroxyethyl]-1H-imidazo[4,5-d]thieno[3,2-b]pyridin-1-yl}cyclohexyl)methyl]-N,N-dimethylurea]

Compound	IC50 (human JAK2)	JAK2/JAK1 (human JAK1 [1])	IC50 (human JAK1 [2])	JAK2 IC50 (nM) (human JAK2)
C[C@@H](O)c1nc2cnc3ccsc3c2n1[C@H]1CC[C@H](CC#N)OC1 [Example 20, ((2R,5S)-5-{2-[(1R)-1-Hydroxyethyl]-1H-imidazo[4,5-d]thieno[3,2-b]pyridin-1-yl}tetrahydro-2H-pyran-2-yl)acetonitrile]	≤ 1 µM	>10	≤ 0.1 µM	–
[(1R,2S,4S)-4-(2-Ethyl-1H-imidazo[4,5-d]thieno[3,2-b]pyridin-1-yl)-2-hydroxycyclohexyl]acetonitrile and [(1S,2R,4R)-4-(2-ethyl-1H-imidazo[4,5-d]thieno[3,2-b]pyridin-1-yl)-2-hydroxycyclohexyl]acetonitrile [40 (first peak)]	≤ 1 µM	>10	≤ 0.1 µM	–
